Results on 29 compounds are retold here after patent US20250034169A1, “NOVEL PYRIMIDOPYRIDINE COMPOUND, PHARMACEUTICAL COMPOSITION THEREOF, AND USE THEREOF” (SUNSHINE LAKE PHARMA CO., LTD., priority 2021, published 2025).

Like-named read-outs stand apart in the source and are kept apart here.

The test system of one series is intracellular pERK. Briefly: Inhibitory effect on intracellular pERK, In-Cell Western, AGS cells. It is filed as cell-based. Conditions: Homo sapiens, read-out: Inhibitory effect on intracellular pERK, IC50.
For a further series, the target named is KRAS G12D-GTP & SOS1 (Homo sapiens (Human), UniProt P01116, G12D). Put plainly: KRAS G12D/SOS1 binding experiment (HTRF). The note with it: competitive binding. For orientation: In TR-FRET formats the signal depends on donor and acceptor labels being close together.
For a further series, the target named is KRAS G12D-GTP & cRAF (Homo sapiens (Human), UniProt P01116, G12D). Briefly: KRAS G12D/cRAF binding experiment (HTRF). The note with it: competitive binding.
The nature of series [1]: Stability in human liver microsomes. It is filed as in vitro ADME. Conditions: human, pH 7.4; for CLHep / ER: 1 μM; for half-life at 1 μM / microsomal CLint at 1 μM: microsomes. How it is done:
(§1) Objective: To evaluate the stability of the compounds of the present invention in human and mouse liver microsomes by LC-MS/MS.
(§2) The ratio of the sample peak area to the internal standard peak area was obtained by LC/MS/MS, and the content of the compounds at 0 min was regarded as 100%, and the relative content of the compounds at each time point was calculated. The half-life of the compound was calculated by plotting the “relative content of the compound” against the “incubation time”, and the intrinsic clearance was calculated, in which the half-life and intrinsic clearance of the compound in human and mouse liver microsomes were determined in Table 3 and Table 4, respectively.
A general note: Liver microsomes are vesicles of endoplasmic reticulum, rich in cytochrome P450 enzymes.

The nature of series [2]: Stability in mouse liver microsomes. It is filed as in vitro ADME. The note with it: mouse, pH 7.4; for CLHep / CLin vivo / ER: 1 μM; for half-life at 1 μM / microsomal CLint at 1 μM: microsomes. How it is done: as §1, §2
Setting [3] is: AGS cells, 3 h incubation, In-Cell Western.

Sequence of KRAS G12D-GTP & SOS1 (P01116-2 other isoform, or with tags, fused parts or gaps G12D): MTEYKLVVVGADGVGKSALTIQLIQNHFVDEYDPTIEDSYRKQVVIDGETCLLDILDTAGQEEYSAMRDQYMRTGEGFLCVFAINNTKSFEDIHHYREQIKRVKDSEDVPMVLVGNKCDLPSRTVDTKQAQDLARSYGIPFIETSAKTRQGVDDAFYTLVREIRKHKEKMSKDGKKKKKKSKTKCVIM
Sequence of KRAS G12D-GTP & cRAF (P01116-2 other isoform, or with tags, fused parts or gaps G12D): as above

As a reminder, the IC50 is the concentration that gives 50% inhibition. Regarding `C#Cc1c(F)ccc2cc(O)cc(-c3nc(C#C)c4c(N5CC6CCC(C5)N6)nc(OC[C@@H]5CCCN5C)nc4c3F)c12` [Compound 51], the IC50 stood at 0.0012 µM in the series on intracellular pERK (setting [3]), 0.0208 µM at KRAS G12D-GTP & SOS1 and 0.0111 µM on KRAS G12D-GTP & cRAF.
`C#Cc1c(F)ccc2cc(O)cc(-c3nc(C#CCOC)c4c(N5CC6CCC(C5)N6)nc(OC[C@@]56CCCN5C[C@H](F)C6)nc4c3F)c12` [Compound 25]: the IC50 with intracellular pERK (AGS, 3 h) turned out to be 0.0008 µM; on KRAS G12D-GTP & SOS1, 0.0168 µM; at KRAS G12D-GTP & cRAF, 0.015 µM.
With `C#Cc1c(F)ccc2cc(O)cc(-c3nc(OCCOC)c4c(N5CC6CCC(C5)N6)nc(OC[C@@]56CCCN5C[C@H](F)C6)nc4c3F)c12` [Compound 10], the values for the IC50 on KRAS G12D-GTP & SOS1 and on KRAS G12D-GTP & cRAF were 0.0139 µM and 0.0087 µM, respectively.
As usually defined, the half-life is the time in which the quantity being followed falls by half. Low values mean rapid decline, high ones slow decline. The term microsomal CLint denotes the capacity of the preparation to metabolise the compound, expressed as a volume cleared per time. Lower therefore signals greater metabolic stability. Turning to `C#Cc1c(F)ccc2cc(O)cc(-c3nc(C#CCCCC)c4c(N5CC6CCC(C5)N6)nc(OC[C@@]56CCCN5C[C@H](F)C6)nc4c3F)c12` [Compound 39], in series [1], the CLHep turned out to be 19.0 mL/min/kg, the ER stood at 0.48, the half-life at 1 μM was found to be 1.52 h and the microsomal CLint at 1 μM was 15.2 µL/min/mg. Further, the half-inhibitory concentration (IC50) in the series on intracellular pERK (setting [3]) turned out to be 0.0005 µM. In series [2], the CLHep was 53.4 mL/min/kg, the CLin vivo worked out at 33.5 mL/min/kg, the ER was found to be 0.37 and the half-life at 1 μM came out at 1.7 h. Further, in series [2], the microsomal CLint at 1 μM was found to be 13.5 µL/min/mg.
For `C#Cc1c(F)ccc2cc(O)cc(-c3nc(C#CCCC(C)C)c4c(N5CC6CCC(C5)N6)nc(OC[C@@]56CCCN5C[C@H](F)C6)nc4c3F)c12` [Compound 30], the IC50 in the series on intracellular pERK (setting [3]) is 0.0008 µM; on KRAS G12D-GTP & SOS1 it was 0.0134 µM; at KRAS G12D-GTP & cRAF, 0.0088 µM.
As to `C#Cc1c(F)ccc2cc(O)cc(-c3nc(C#C)c4c(N5CC6CCC(C5)N6)nc(OCC5CCCC5)nc4c3F)c12` [Compound 56], the half-maximal inhibitory concentration (IC50) came to 0.0157 µM at KRAS G12D-GTP & SOS1 and 0.0185 µM on KRAS G12D-GTP & cRAF.
The like results for `C#Cc1c(F)ccc2cc(O)cc(-c3nc(C(=O)OCC)c4c(N5CC6CCC(C5)N6)nc(OC[C@@]56CCCN5C[C@H](F)C6)nc4c3F)c12` [Compound 13] were, in that order, 0.0113 µM and 0.0051 µM.
The like results for `C#Cc1c(F)ccc2cc(O)cc(-c3nc(C#C)c4c(N5CC6CCC(C5)N6)nc(OCCC(F)(F)F)nc4c3F)c12` [Compound 55] were, in that order, 0.0148 µM and 0.0098 µM.
As for `C#Cc1c(F)ccc2cc(O)cc(-c3nc(C#C)c4c(N5CC6CCC(C5)N6)nc(OC[C@H]5CCCN5C)nc4c3F)c12` [Compound 50], the IC50 on KRAS G12D-GTP & SOS1 worked out at 0.0362 µM; at KRAS G12D-GTP & cRAF it was 0.0191 µM.
Take `C#Cc1c(F)ccc2cc(O)cc(-c3nc(C#CCC)c4c(N5CC6CCC(C5)N6)nc(OC[C@@]56CCCN5C[C@H](F)C6)nc4c3F)c12` [Compound 24]: the IC50 in the series on intracellular pERK (AGS, 3 h) was 0.0002 µM; at KRAS G12D-GTP & SOS1 it was 0.0151 µM; at KRAS G12D-GTP & cRAF, 0.0136 µM.
Turning to `C#Cc1c(F)ccc2cc(O)cc(-c3nc(COC)c4c(N5CC6CCC(C5)N6)nc(OC[C@@]56CCCN5C[C@H](F)C6)nc4c3F)c12` [Compound 26], in the series with intracellular pERK (setting [3]), the IC50 is 0.0004 µM.
As to `C#Cc1c(F)ccc2cc(O)cc(-c3nc(C#C)c4c(N5CCN[C@@H](C)C5)nc(OC[C@@]56CCCN5C[C@H](F)C6)nc4c3F)c12` [Compound 43], the figures for the concentration for half-maximal inhibition (IC50) on KRAS G12D-GTP & SOS1 and at KRAS G12D-GTP & cRAF were 0.0241 µM and 0.0163 µM, respectively.
As to `C#Cc1nc(-c2cc(O)cc3cccc(F)c23)c(F)c2nc(OC[C@@]34CCCN3C[C@H](F)C4)nc(N3CC4CCC(C3)N4)c12` [Compound 68], the results for the IC50 with intracellular pERK (setting [3]), on KRAS G12D-GTP & SOS1 and at KRAS G12D-GTP & cRAF were 0.0008 µM, 0.0166 µM and 0.0065 µM, respectively.
The like results for `C#Cc1c(F)ccc2cc(O)cc(-c3nc(C#C)c4c(N5CC6CCC(C5)N6)nc(OCC5(CN(C)C)CC5)nc4c3F)c12` [Compound 52] were, in that order, 0.0015 µM, 0.0152 µM and 0.0077 µM.
Regarding `C#Cc1c(F)ccc2cc(O)cc(-c3nc(C#C)c4c(N5CC6CC(C5)N6)nc(OC[C@@]56CCCN5C[C@H](F)C6)nc4c3F)c12` [Compound 41], the IC50 on KRAS G12D-GTP & SOS1 was found to be 0.0314 µM; on KRAS G12D-GTP & cRAF, 0.022 µM.
As to `C#Cc1c(F)ccc2cc(O)cc(-c3nc(C#C)c4c(N5CC6CCC(C5)N6)nc(OCC5(CN6CCOCC6)CC5)nc4c3F)c12` [Compound 53], the figures for the IC50 in the series with intracellular pERK (setting [3]), at KRAS G12D-GTP & SOS1 and on KRAS G12D-GTP & cRAF were 0.0004 µM, 0.0146 µM and 0.0043 µM, respectively.
For `C#Cc1nc(-c2cc(O)cc3ccccc23)c(F)c2nc(OC[C@@]34CCCN3C[C@H](F)C4)nc(N3CC4CCC(C3)N4)c12` [Compound 66], the results for the IC50 at KRAS G12D-GTP & SOS1 and on KRAS G12D-GTP & cRAF were 0.0117 µM and 0.0059 µM, respectively.
The like results for `C#Cc1c(F)ccc2cc(O)cc(-c3nc(COC)c4c(N5CC6CCC(C5)N6)nc(OC[C@@]56CCCN5C[C@H](F)C6)nc4c3F)c12` [Compound 12] were, in that order, 0.0103 µM and 0.0097 µM.
Turning to `[2H]C([2H])([2H])c1nc(-c2cc(O)cc3ccc(F)c(C#C)c23)c(F)c2nc(OC[C@@]34CCCN3C[C@H](F)C4)nc(N3CC4CCC(C3)N4)c12` [Compound 11], the IC50 at KRAS G12D-GTP & SOS1 turned out to be 0.0198 µM; on KRAS G12D-GTP & cRAF it was 0.0092 µM.
Consider `C#Cc1c(F)ccc2cccc(-c3nc(C#C)c4c(N5CC6CCC(C5)N6)nc(OC[C@@]56CCCN5C[C@H](F)C6)nc4c3F)c12` [Compound 84], for which the results for the IC50 on KRAS G12D-GTP & SOS1 and at KRAS G12D-GTP & cRAF were 0.0296 µM and 0.0208 µM, respectively.
For the compound `C#Cc1c(F)ccc2cc(O)cc(-c3nc(C#CC4CCCC4)c4c(N5CC6CCC(C5)N6)nc(OC[C@@]56CCCN5C[C@H](F)C6)nc4c3F)c12` [Compound 28], the 50% inhibitory concentration (IC50) at KRAS G12D-GTP & SOS1 turned out to be 0.0115 µM; at KRAS G12D-GTP & cRAF it was 0.0111 µM.
Take `C#Cc1c(F)ccc2cc(O)cc(-c3nc(C#C)c4c(N5CC6CCC(C5)N6)nc(OCC56CCCN5CCC6)nc4c3F)c12` [Compound 54]: in series [1], the CLHep was 5.6 mL/min/kg, the ER is 0.21, the half-life at 1 μM is 5.2 h and the microsomal CLint at 1 μM amounted to 4.4 µL/min/mg. Moreover, in series [2], the CLHep came to 31.9 mL/min/kg, the CLin vivo is 23.5 mL/min/kg, the ER is reported as 0.26 and the half-life at 1 μM stood at 2.86 h. For the same compound, the microsomal CLint at 1 μM in series [2] stood at 8.1 µL/min/mg.
With `C#Cc1nc(-c2cc(O)cc(Cl)c2C2CC2)c(F)c2nc(OC[C@@]34CCCN3C[C@H](F)C4)nc(N3CC4CCC(C3)N4)c12` [Compound 78], the half-inhibitory concentration (IC50) amounted to 0.0173 µM at KRAS G12D-GTP & SOS1 and 0.0075 µM on KRAS G12D-GTP & cRAF.
For `C#Cc1c(F)ccc2cc(O)cc(-c3nc(OCCC(F)(F)F)c4c(N5CC6CCC(C5)N6)nc(OC[C@@]56CCCN5C[C@H](F)C6)nc4c3F)c12` [Compound 9], the figures for the IC50 in the series with intracellular pERK (setting [3]), at KRAS G12D-GTP & SOS1 and on KRAS G12D-GTP & cRAF were 0.0006 µM, 0.0126 µM and 0.0088 µM, respectively.
The like results for `C#Cc1c(F)ccc2cc(O)cc(-c3nc(C#CCC(C)C)c4c(N5CC6CCC(C5)N6)nc(OC[C@@]56CCCN5C[C@H](F)C6)nc4c3F)c12` [Compound 29] were, in that order, 0.001 µM, 0.0159 µM and 0.0147 µM.
Turning to `C#CCOc1nc(-c2cc(O)cc3ccc(F)c(C#C)c23)c(F)c2nc(OC[C@@]34CCCN3C[C@H](F)C4)nc(N3CC4CCC(C3)N4)c12` [Compound 91], the IC50 in the series with intracellular pERK (setting [3]) is 0.0003 µM.
On to `C#Cc1nc(-c2cc(O)cc3ccc(F)c(CC)c23)c(F)c2nc(OC[C@@]34CCCN3C[C@H](F)C4)nc(N3CC4CCC(C3)N4)c12` [Compound 65], for which the IC50 with intracellular pERK (AGS, 3 h) stood at 0.0004 µM; on KRAS G12D-GTP & SOS1 it was 0.0185 µM; on KRAS G12D-GTP & cRAF, 0.0099 µM.
Regarding `C#Cc1c(F)ccc2cc(O)cc(-c3nc(C#C)c4c(N5C[C@@H]6C[C@H]5CN6)nc(OC[C@@]56CCCN5C[C@H](F)C6)nc4c3F)c12` [Compound 44], the IC50 at KRAS G12D-GTP & SOS1 was 0.0296 µM; at KRAS G12D-GTP & cRAF it was 0.0152 µM.
With `C#Cc1c(F)ccc2cc(O)cc(-c3nc(C#CCCC#N)c4c(N5CC6CCC(C5)N6)nc(OC[C@@]56CCCN5C[C@H](F)C6)nc4c3F)c12` [Compound 31], the values for the 50% inhibitory concentration (IC50) at KRAS G12D-GTP & SOS1 and at KRAS G12D-GTP & cRAF were 0.0346 µM and 0.0246 µM, respectively.
